The source of these data is ChEMBL document CHEMBL1155620, “Two new biologically active triterpene saponins from Acanthophyllum squarrosum” (J Nat Prod, 2000).

The species named for data set [1] is Mus musculus. Put plainly: Increase in LPS-induced proliferation in mouse B-lymphocytes at 1 ug/mL by MTS assay. The data set is classed as functional, cell-based. A general note: Tetrazolium dyes change colour on reduction, which living cells bring about.
For data set [2], the species on record is Mus musculus. Put plainly: Increase in concanavalin A-induced proliferation in mouse T-lymphocytes at 1 ug/mL by MTS assay. The data set is classed as functional, cell-based.
Data set [3] is described as follows: Cytotoxicity against mouse lymphocytes at 100 ug/mL by MTS assay.
Data set [4] in a line: Cytotoxicity against mouse lymphocytes at 10 ug/mL by MTS assay.
Data set [5] is described as follows: Suppression of concanavalin A-induced proliferation in mouse T-lymphocytes at 1 ug/mL by MTS assay. The class given is functional.
The species named for data set [6] is Mus musculus. The data set is described as follows: Immunostimulant activity in mouse lymphocytes at 100 pg/ml to 1 ug/mL by MTS assay. The class given is functional, cell-based.

The source made the active and inactive calls. No cut-off for these calls is given here.

As for `C[C@@H]1O[C@@H](O[C@H]2[C@H](O[C@H]3[C@H](OC(=O)[C@]45CCC(C)(C)C[C@H]4C4=CC[C@@H]6[C@@]7(C)CC[C@H](O[C@@H]8O[C@H](CO)[C@@H](O)[C@H](O)[C@H]8O)[C@@](C)(C=O)[C@@H]7CC[C@@]6(C)[C@]4(C)CC5)O[C@H](CO[C@@H]4O[C@H](CO)[C@@H](O)[C@H](O)[C@H]4O)[C@@H](O)[C@@H]3O)OC[C@H](O)[C@@H]2O)[C@H](O)[C@H](O)[C@H]1O`, the outcome in the data set listed under Mus musculus [1] and in the data set listed under Mus musculus [2] was Active. Besides, the Activity result in data set [3] was “Non-toxic”.

Take `C[C@@H]1O[C@@H](O[C@@H]2[C@@H](O)[C@H](OC(=O)[C@]34CCC(C)(C)C[C@H]3C3=CC[C@@H]5[C@@]6(C)CC[C@H](O[C@@H]7O[C@H](C(=O)O)[C@@H](O)[C@H](O[C@@H]8OC[C@@H](O)[C@H](O)[C@H]8O)[C@H]7O[C@@H]7O[C@H](CO)[C@H](O)[C@H](O)[C@H]7O)[C@@](C)(C=O)[C@@H]6CC[C@@]5(C)[C@]3(C)CC4)O[C@H](C)[C@@H]2O[C@@H]2O[C@@H](C)[C@H](O[C@@H]3OC[C@@H](O)[C@H](O[C@@H]4OC[C@@H](O)[C@H](O)[C@H]4O)[C@H]3O)[C@@H](O)[C@H]2O)[C@H](O)[C@H](O)[C@H]1O`: the result in the data set filed under Mus musculus [1] and in the data set listed under Mus musculus [6] was Active. The Activity entry in data set [4] is “Non-toxic”; in data set [5], 40%; in data set [3] it was 58%.
